Assay [1] concerns the target CK1ϵ (Homo sapiens, UniProt P49674). In words: CK1ϵ kinase assay (Caliper LABCHIP electrophoretic separation of fluoresceinated peptide substrate and product). It counts as biochemical. The following applies: 200 pM CK1ϵ, 50 μM ATP, 1.5 μM peptide substrate, 22 hours at room temperature; read-out: CK1ε (IC50).
Assay [2] concerns the target CK1δ (Homo sapiens, UniProt P48730). In words: CK1δ kinase assay (Caliper LABCHIP electrophoretic separation of fluoresceinated peptide substrate and product). Particulars: 200 pM CK1δ, 50 μM ATP, 1.5 μM peptide substrate, 22 hours at room temperature. It counts as biochemical.

From patent publication US9956220B2, “Imidazo-pyridazine derivatives as casein kinase 1 δ/ϵ inhibitors” (Bristol-Myers Squibb Company, priority 2014, dated 2018) come the findings set out here.

SMILES strings stand for the structures.

Sequence of CK1ϵ (P49674 whole entry): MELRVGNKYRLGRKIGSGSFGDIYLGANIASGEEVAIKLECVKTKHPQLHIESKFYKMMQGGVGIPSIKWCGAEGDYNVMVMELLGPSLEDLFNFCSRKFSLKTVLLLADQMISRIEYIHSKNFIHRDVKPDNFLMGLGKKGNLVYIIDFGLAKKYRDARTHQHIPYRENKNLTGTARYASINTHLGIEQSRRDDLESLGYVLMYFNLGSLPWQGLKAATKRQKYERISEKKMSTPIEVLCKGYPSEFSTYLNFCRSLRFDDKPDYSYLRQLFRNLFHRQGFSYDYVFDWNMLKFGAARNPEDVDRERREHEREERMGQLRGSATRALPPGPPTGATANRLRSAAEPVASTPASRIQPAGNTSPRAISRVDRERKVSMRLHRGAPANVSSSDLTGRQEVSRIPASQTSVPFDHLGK
Sequence of CK1δ (P48730 whole entry): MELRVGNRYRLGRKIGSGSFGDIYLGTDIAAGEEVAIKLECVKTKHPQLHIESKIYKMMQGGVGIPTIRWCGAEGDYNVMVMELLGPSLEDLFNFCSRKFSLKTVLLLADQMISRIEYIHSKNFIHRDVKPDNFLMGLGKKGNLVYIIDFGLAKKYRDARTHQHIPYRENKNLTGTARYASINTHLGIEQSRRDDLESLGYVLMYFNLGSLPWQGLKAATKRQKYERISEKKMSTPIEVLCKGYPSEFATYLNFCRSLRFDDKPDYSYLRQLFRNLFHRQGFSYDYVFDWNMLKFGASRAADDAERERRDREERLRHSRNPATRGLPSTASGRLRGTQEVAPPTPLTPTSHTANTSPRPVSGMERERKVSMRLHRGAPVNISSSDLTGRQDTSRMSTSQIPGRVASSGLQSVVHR

Broadly, the IC50 is the midpoint of a concentration-inhibition curve. Take `O=C(Nc1cn2nc(-c3c(-c4ccc(F)cc4)nn4c3CCC4)ccc2n1)c1ccncc1` [Example 67, N-(6-(2-(4-Fluorophenyl)-5,6-dihydro-4H-pyrrolo[1,2-b]pyrazol-3-yl)imidazo[1,2-b]pyridazin-2-yl) isonicotinamide]: the IC50 came to 3.6 nM in assay [1] and 0.4 nM in assay [2].

As to `CS(=O)(=O)N1CCn2nc(-c3ccc(F)cc3)c(-c3ccc4nc(NC(=O)c5ccnc(F)c5)cn4n3)c2C1` [Example 35, 2-Fluoro-N-(6-(2-(4-fluorophenyl)-5-(methylsulfonyl)-4,5,6,7-tetrahydropyrazolo[1,5-a]pyrazin-3-yl)imidazo[1,2-b]pyridazin-2-yl)isonicotinamide], the half-inhibitory concentration (IC50) in assay [1] is 0.8 nM; in assay [2], 0.2 nM.

Turning to `O=C(Nc1cn2nc(-c3c(-c4ccc(F)cc4)nn4c3CN(S(=O)(=O)C3CC3)CC4)ccc2n1)c1ccnc(F)c1` [Example 36, N-(6-(5-(Cyclopropylsulfonyl)-2-(4-fluorophenyl)-4,5,6,7-tetrahydropyrazolo[1,5-a]pyrazin-3-yl)imidazo[1,2-b]pyridazin-2-yl)-2-fluoroisonicotinamide], the IC50 was 1.2 nM in assay [1] and 0.1 nM in assay [2].

Regarding `CC(=O)N1CCn2nc(-c3ccc(F)cc3)c(-c3ccc4nc(NC(=O)c5ccnc(F)c5)cn4n3)c2C1` [Example 12, N-(6-(5-Acetyl-2-(4-fluorophenyl)-4,5,6,7-tetrahydropyrazolo[1,5-a]pyrazin-3-yl)imidazo[1,2-b]pyridazin-2-yl)-2-fluoroisonicotinamide], the IC50 in assay [1] is 2 nM; in assay [2] it was 0.3 nM.

Turning to `O=C(Nc1cn2nc(-c3c(-c4ccc(F)cc4)nn4c3CN(C(=O)NC3CCCC3)CC4)ccc2n1)c1ccnc(F)c1` [Example 44, N-Cyclopentyl-3-(2-(2-fluoroisonicotinamido)imidazo [1,2-b]pyridazin-6-yl)-2-(4-fluorophenyl)-6,7-dihydropyrazolo[1,5-a]pyrazine-5(4H)-carboxamide], the figures for the half-inhibitory concentration (IC50) in assay [1] and in assay [2] were 13.9 nM and 2 nM, respectively.

Take `O=C(Nc1cn2nc(-c3c(-c4ccc(F)cc4)nn4c3CCC4)ccc2n1)c1cc(F)nc(F)c1` [Example 66, 2,6-Difluoro-N-(6-(2-(4-fluorophenyl)-5,6-dihydro-4H-pyrrolo[1,2-b]pyrazol-3-yl)imidazo[1,2-b]pyridazin-2-yl)isonicotinamide]: the half-inhibitory concentration (IC50) in assay [1] was determined as 5.3 nM; in assay [2] it was 0.7 nM.

Consider `O=C(Nc1cn2nc(-c3c(-c4ccc(F)cc4)nn4c3CN(C(=O)c3ccnc(F)c3)CC4)ccc2n1)c1ccnc(F)c1` [Example 20, 2-Fluoro-N-(6-(5-(2-fluoroisonicotinoyl)-2-(4-fluorophenyl)-4,5,6,7-tetrahydropyrazolo[1,5-a]pyrazin-3-yl)imidazo[1,2-b]pyridazin-2-yl) isonicotinamide], for which the IC50 in assay [1] came to 7 nM; in assay [2], 0.5 nM.

As to `O=C(Nc1cn2nc(-c3c(-c4ccc(F)cc4)nn4c3CN(C(=O)CCC(F)(F)F)CC4)ccc2n1)c1ccnc(F)c1` [Example 16, 2-Fluoro-N-(6-(2-(4-fluorophenyl)-5-(4,4,4-trifluorobutanoyl)-4,5,6,7-tetrahydropyrazolo[1,5-a]pyrazin-3-yl)imidazo[1,2-b]pyridazin-2-yl) isonicotinamide], the results for the half-inhibitory concentration (IC50) in assay [1] and in assay [2] were 4.9 nM and 0.8 nM, respectively.

For the molecule `O=C(Nc1cn2nc(-c3c(-c4ccc(F)cc4)nn4c3CN(C(=O)c3cccc(F)c3)CC4)ccc2n1)c1ccnc(F)c1` [Example 19, 2-Fluoro-N-(6-(5-(3-fluorobenzoyl)-2-(4-fluorophenyl)-4,5,6,7-tetrahydropyrazolo[1,5-a]pyrazin-3-yl)imidazo[1,2-b]pyridazin-2-yl) isonicotinamide], the IC50 was found to be 2.7 nM in assay [1] and 0.2 nM in assay [2].

Regarding `O=C(Nc1cn2nc(-c3c(-c4ccc(F)cc4)nn4c3CN(CCCF)CC4)ccc2n1)c1ccnc(F)c1` [Example 28, 2-Fluoro-N-(6-(2-(4-fluorophenyl)-5-(3-fluoropropyl)-4,5,6,7-tetrahydropyrazolo[1,5-a]pyrazin-3-yl)imidazo[1,2-b]pyridazin-2-yl)isonicotinamide], the IC50 is 2.5 nM in assay [1] and 0.2 nM in assay [2].

For the molecule `O=C(Nc1cn2nc(-c3c(-c4ccc(F)cc4)nn4c3CN(S(=O)(=O)c3ccc(F)cc3)CC4)ccc2n1)c1ccnc(F)c1` [Example 37, 2-Fluoro-N-(6-(2-(4-fluorophenyl)-5-((4-fluorophenyl)sulfonyl)-4,5,6,7-tetrahydropyrazolo [1,5-a]pyrazin-3-yl)imidazo [1,2-b]pyridazin-2-yl) isonicotinamide], the results for the IC50 in assay [1] and in assay [2] were 14 nM and 1.1 nM, respectively.
